Where two headings read alike, the source gives them in different places.
Key:
[1] = tested on: Zluc cells; assay: Cytotoxicity evaluation, CellTiter-Blue Cell Viability Assay; conditions: Zluc cells, CellTiter-Blue
[2] = biological target: HCV genotype 1b replicon; assay: HCV replicon assay (Zluc luciferase); assay type: cell-based
Method: Huh-7-derived cell line (Zluc) that harbors an HCV genotype 1b replicon and a luciferase reporter gene was grown in Dulbecco's Modified Eagle Medium (DMEM) supplemented with 10% fetal bovine serum, 2 mM GlutaMAX, 1% MEM nonessential amino acids, 100 IU/mL penicillin, 100 μg/mL streptomycin, and 0.5 mg/mL Geneticin® (G418). For dose response testing the cells were seeded in 96-well plates at 7.5×10^3 cells per well in a volume of 50 μL, and incubated at 37° C./5% CO2. Drug solutions were made up freshly in Huh-7 media as 2× stocks. Ten additional 5-fold dilutions were prepared from these stocks in DMEM without G418. At least three hours after Zluc cells were seeded, drug treatment was initiated by adding 50 μL of drug dilutions to the plates in duplicate. Final concentrations of drug ranged from 100 μM to […]. Cells were then incubated at 37° C./5% CO2. Alternatively, compounds were tested at two concentrations (1 μM and 10 μM). […] For this, media was removed from the plates via gentle tapping. Fifty microliters of ONE-glo luciferase assay reagent was added to each well. The plates were shaken gently for 3 min at room temperature and luminescence was measured on a Victor^3 V 1420 multilabel counter (Perkin Elmer) with a 1 second read time using a 700 nm cut-off filter. The EC50 values were calculated from dose response curves from the resulting best-fit equations determined by Microsoft Excel and XLfit 4.1 software. When screening at two fixed concentrations, the results were expressed as % inhibition at 1 μM and 10 μM.

[3] = Liver triphosphate pharmacokinetics after single oral dose in CD-1 mice; assay type: in vivo; parameters: key: + ≤ 15; 15 < ++ ≤ 50; 50 < +++ ≤ 100; 100 < ++++; BLQ = below limit of quantitation; conditions: single oral dose 10 mg/kg in PEG 200;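 as to Ms Liver TP AUC: pmol·h/g liver normalized to a 1 µmol/kg dose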;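 as to Ms Liver TP Cmax: pmol/g liver normalized to a 1 µmol/kg dose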
Method: Internal standard solution was added to the homogenate followed by neutralization with 20% ammonium hydroxide solution and addition of 500 μL 1% formic acid. The tissue samples were extracted by weak anion exchange solid phase extraction (SPE). Post extraction, the eluates were evaporated under nitrogen, followed by reconstitution before injection onto the LC-MS/MS system.

[4] = Plasma nucleoside pharmacokinetics after single oral dose in CD-1 mice; assay type: in vivo; conditions: single oral dose 10 mg/kg in PEG 200;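 as to Ms Plasma nucleoside AUC: pmol·h/mL plasma normalized to a 1 µmol/kg dose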
Method: Plasma samples were analyzed for nucleoside by LC-MS/MS. The internal standard (IS) was either 2′-MeG-D3 or tiapride. For protein precipitation and extraction, each plasma sample (50 μL) was treated with 500 μL of 0.2% formic acid in acetonitrile and 20 μL of the internal standard working solution. After vortexing and centrifugation, 500 μL of the sample extracts were transferred to a new plate, dried under N2 at ˜28° C. and reconstituted with 75 μL of 0.2% FA in water. The extracts were chromatographed on an Aquasil C18 column using a gradient system of 0.2% formic acid in water and acetonitrile. The analytes were detected and quantified by tandem mass spectrometry in positive ion mode on an MDS Sciex API5000 equipped with a Turbo Ionspray® interface. The calibration range was 0.500 (LLOQ) to 200 ng/mL in mouse plasma.

[5] = Zluc cells, 72 hours; read-out: HCV Replicon EC50

SMILES	CC50 [1]	EC50 [2, 5]	Ms Liver TP AUC [3]	Ms Liver TP Cmax [3]	Ms Plasma nucleoside AUC [4]	Ms Plasma nucleoside Cmax [4]	EC50 ([2]; read-out: HCV Replicon EC50; Zluc cells, 72 hours)
CC(C)OC(=O)C(C)NP(=O)(OCC1OC(n2cnc3c(=O)[nH]c(N)nc32)C(C)(Cl)C1O)Oc1ccccc1 (mixture of isomers) [Compound 21ii Mixture of P-Diastereoisomers]	> 50 µM	> 10 µM	–	–	–	–	–
CCOc1nc(N)nc2c1ncn2[C@@H]1O[C@H](COP(=O)(N[C@@H](C)C(=O)OC(C)C)Oc2ccccc2)[C@@H](O)[C@@]1(C)Cl (single isomer, unassigned) [Compound 17ii Diastereomer 2]	> 50 µM	1 to 10 µM	BLQ	BLQ	–	–	–
CC(C)OC(=O)[C@H](C)NP(=O)(OC[C@H]1O[C@@H](n2cnc3c(=O)[nH]c(N)nc32)[C@](C)(Cl)[C@@H]1O)Oc1ccccc1 (single isomer, unassigned) [Compound 21ii Diastereomer 2]	> 50 µM	> 10 µM	–	–	–	–	–
CC(C)(CO)C(=O)SCCOP(=O)(NCc1ccccc1)OC[C@H]1O[C@@H](n2ccc(=O)[nH]c2=O)[C@](C)(Cl)[C@@H]1O (single isomer, unassigned) [Compound 54 Diastereomer 1]	–	–	+ (+ ≤ 150)	++ (15 < ++ ≤ 50)	+++ (500 < +++ ≤ 1500)	+++ (50 < +++ ≤ 100)	–
CC(C)(CO)C(=O)SCCOP(=O)(NCc1ccccc1)OC[C@H]1O[C@@H](n2ccc(=O)[nH]c2=O)[C@](C)(Cl)[C@@H]1O (single isomer, unassigned) [Compound 54 Single Diastereoisomer]	> 50 µM	1 to 10 µM	–	–	–	–	–
CCOC(=O)COP(=O)(OC[C@H]1O[C@@H](n2ccc(=O)[nH]c2=O)[C@](C)(Cl)[C@@H]1O)Oc1ccccc1 (single isomer, unassigned) [Compound 72 Diastereomer 2]	–	–	–	–	–	–	> 10 µM
CC(C)OC(=O)[C@H](C)NP(=O)(OC[C@H]1O[C@@H](n2cc(F)c3c(N)ncnc32)[C@](C)(Cl)[C@@H]1O)Oc1ccccc1 (single isomer, unassigned) [Compound 207ii Diastereomer 2]	> 50 µM	> 10 µM	–	–	–	–	–
CC(C)OC(=O)[C@H](C)NP1(=O)OC[C@H]2O[C@@H](n3cnc4c(N)ncnc43)[C@](C)(Cl)[C@@H]2O1 (single isomer, unassigned; diastereoisomer 1) [Compound 77ii Diastereoisomer 1]	> 50 µM	1 to 10 µM	–	–	–	–	–
CC(COC(=O)C(C)C)NP1(=O)OCC2OC(n3cnc4c(N)ncnc43)C(C)(Cl)C2O1 (single isomer, unassigned; diastereoisomer 1) [Compound 95 Diastereoisomer 1]	> 50 µM	0.25 to 1 µM	–	–	–	–	–
CC(C)OC(=O)[C@H](C)NP1(=O)OC[C@H]2O[C@@H](n3cnc4c(N)ncnc43)[C@](C)(Cl)[C@@H]2O1 (single isomer, unassigned; diastereoisomer 2) [Compound 77ii Diastereoisomer 2]	> 50 µM	0.25 to 1 µM	–	–	–	–	–
CC(COC(=O)C(C)C)NP1(=O)OCC2OC(n3cnc4c(N)ncnc43)C(C)(Cl)C2O1 (single isomer, unassigned; diastereoisomer 2) [Compound 95 Diastereoisomer 2]	> 50 µM	0.25 to 1 µM	–	–	–	–	–
CC(C)OC(=O)[C@H](C)NP1(=O)OC[C@H]2O[C@@H](n3ccc(=O)[nH]c3=O)[C@](C)(Cl)[C@@H]2O1 (single isomer, unassigned; diastereomer 1) [Compound 38ii Diastereomer 1]	–	–	+ (+ ≤ 150)	+ (+ ≤ 15)	+++ (500 < +++ ≤ 1500)	+++ (50 < +++ ≤ 100)	–
CC(C)OC(=O)[C@H](C)NP(=O)(OCCSC(=O)C(C)(C)C)OC[C@H]1O[C@@H](n2ccc(=O)[nH]c2=O)[C@](C)(Cl)[C@@H]1O (single isomer, unassigned; diastereomer 1) [Compound 43ii Diastereomer 1]	> 50 µM	0.25 to 1 µM	–	–	–	–	–
CC(C)OC(=O)[C@H](C)NP1(=O)OC[C@H]2O[C@@H](n3cnc4c(N)ncnc43)[C@](C)(Cl)[C@@H]2O1 (single isomer, unassigned; diastereomer 1) [Compound 77ii Diastereomer 1]	–	–	++++ (1500 < ++++)	++++ (100 < ++++)	+ (+ ≤ 150)	+ (+ ≤ 15)	–
CC(C)C(=O)OC[C@H](C)NP1(=O)OC[C@H]2O[C@@H](n3cnc4c(N)ncnc43)[C@](C)(Cl)[C@@H]2O1 (single isomer, unassigned; diastereomer 1) [Compound 95i Diastereomer 1]	–	–	+ (+ ≤ 150)	+ (+ ≤ 15)	+ (+ ≤ 150)	+ (+ ≤ 15)	–
CC(C)OC(=O)[C@@H](C)NP(=O)(OC[C@H]1O[C@@H](n2ccc(=O)[nH]c2=O)[C@](C)(Cl)[C@@H]1O)SC1CCCC1 (single isomer, unassigned; diastereomer 1) [Compound 206i Diastereomer 1]	–	–	+++ (500 < +++ ≤ 1500)	++++ (100 < ++++)	+++ (500 < +++ ≤ 1500)	+++ (50 < +++ ≤ 100)	–
CC(C)OC(=O)[C@H](C)NP1(=O)OC[C@H]2O[C@@H](n3ccc(=O)[nH]c3=O)[C@](C)(Cl)[C@@H]2O1 (single isomer, unassigned; diastereomer 2) [Compound 38ii Diastereomer 2]	–	–	+++ (500 < +++ ≤ 1500)	++ (15 < ++ ≤ 50)	+++ (500 < +++ ≤ 1500)	++++ (100 < ++++)	–
CC(C)(CO)C(=O)SCCOP(=O)(NCc1ccccc1)OC[C@H]1O[C@@H](n2ccc(=O)[nH]c2=O)[C@](C)(Cl)[C@@H]1O (single isomer, unassigned; diastereomer 2) [Compound 54 Diastereomer 2]	–	–	+ (+ ≤ 150)	+ (+ ≤ 15)	+++ (500 < +++ ≤ 1500)	++ (15 < ++ ≤ 50)	–
CC(C)OC(=O)[C@H](C)NP1(=O)OC[C@H]2O[C@@H](n3cnc4c(N)ncnc43)[C@](C)(Cl)[C@@H]2O1 (single isomer, unassigned; diastereomer 2) [Compound 77ii Diastereomer 2]	–	–	++++ (1500 < ++++)	++++ (100 < ++++)	+ (+ ≤ 150)	+ (+ ≤ 15)	–
CC(C)C(=O)OC[C@H](C)NP1(=O)OC[C@H]2O[C@@H](n3cnc4c(N)ncnc43)[C@](C)(Cl)[C@@H]2O1 (single isomer, unassigned; diastereomer 2) [Compound 95i Diastereomer 2]	–	–	++ (150 < ++ ≤ 500)	+ (+ ≤ 15)	+ (+ ≤ 150)	+ (+ ≤ 15)	–
CC(C)OC(=O)[C@@H](C)NP(=O)(OC[C@H]1O[C@@H](n2ccc(=O)[nH]c2=O)[C@](C)(Cl)[C@@H]1O)SC1CCCC1 (single isomer, unassigned; diastereomer 2) [Compound 206i Diastereomer 2]	–	–	+++ (500 < +++ ≤ 1500)	+++ (50 < +++ ≤ 100)	+++ (500 < +++ ≤ 1500)	+++ (50 < +++ ≤ 100)	–
